Assay [1] addresses T1, PI3Kα (wild-type), P110/P85α (Homo sapiens, UniProt P42336).
T1 construct: made in house; host or cells: SF9 insect cells
The experiment in a line: PI3 Kinase TR-FRET assay, PI3Kα (wild-type). In kind it is biochemical. In short, it runs like this: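 TR-FRET read-out of PIP3 formation via biotin-PIP3 displacement (665/615 nm ratio) gave IC50 curves. Enzyme: 5 ng wild-type P110/P85α from Sf9 cells, 60 min RT with compound and PIP2 (MgCl2 40 mM, DTT 5 mM), then 30 min RT kinase reaction at 10 μM ATP and 10 μM PIP2.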
(Time-resolved FRET reads energy transfer from a long-lived donor to a nearby acceptor.)

Assay [2] deals with T2, mTOR kinase (Homo sapiens, UniProt P42345).
T2 construct: purchased Millipore, USA
The experiment in a line: mTOR kinase TR-FRET assay. Particulars: read-out: mTO R. Type of assay: biochemical. In short, it runs like this:
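TR-FRET read-out (340 nm excitation, 615/665 nm emission) of Thr389 phosphorylation of a ULight-labeled p70 S6K peptide (50 nM) by mTOR, 20 μM ATP, 60 min room temperature after 60 min compound preincubation. Buffer HEPES pH 7.5 with MnCl2, EGTA; IC50 by sigmoidal dose-response.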

Assay [3] deals with pS6RP(S235/236), PC3 cells. The experiment in a line: In-cell Western assay, pS6RP(S235/236) in PC3 cells. In kind it is cell-based, human. The conditions noted are these: Homo sapiens, PC-3, In-cell Western. An outline of the steps:
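Overnight-seeded PC3 cells were treated 2 h with serially diluted compound, then fixed and immunostained with phospho-specific primary antibodies and Eu-labelled secondary. Time-resolved Eu signal read at 615 nm (ex 340 nm), normalised by Hoechst 33258 staining (ex 355/em 460 nm); IC50 from sigmoidal dose-response fit.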

In assay [4] the test system is PC3 cells. Briefly: XTT assay for cell viability, PC3 cells. Type of assay: cell-based, human. Particulars: Homo sapiens, PC-3, cell viability. In short, it runs like this: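 PC3 cells seeded at 1000 cells/well, grown 24 h, then exposed to serial dilutions of compound for 96 h. Viability read by XTT dye at 37° C, absorbance 465 nm. EC50 from sigmoidal dose-response fit.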

pIC50: −log10 of the molar value. Where only a bound is given, the exact number is not on record here.

T1 sequence (P42336 whole entry): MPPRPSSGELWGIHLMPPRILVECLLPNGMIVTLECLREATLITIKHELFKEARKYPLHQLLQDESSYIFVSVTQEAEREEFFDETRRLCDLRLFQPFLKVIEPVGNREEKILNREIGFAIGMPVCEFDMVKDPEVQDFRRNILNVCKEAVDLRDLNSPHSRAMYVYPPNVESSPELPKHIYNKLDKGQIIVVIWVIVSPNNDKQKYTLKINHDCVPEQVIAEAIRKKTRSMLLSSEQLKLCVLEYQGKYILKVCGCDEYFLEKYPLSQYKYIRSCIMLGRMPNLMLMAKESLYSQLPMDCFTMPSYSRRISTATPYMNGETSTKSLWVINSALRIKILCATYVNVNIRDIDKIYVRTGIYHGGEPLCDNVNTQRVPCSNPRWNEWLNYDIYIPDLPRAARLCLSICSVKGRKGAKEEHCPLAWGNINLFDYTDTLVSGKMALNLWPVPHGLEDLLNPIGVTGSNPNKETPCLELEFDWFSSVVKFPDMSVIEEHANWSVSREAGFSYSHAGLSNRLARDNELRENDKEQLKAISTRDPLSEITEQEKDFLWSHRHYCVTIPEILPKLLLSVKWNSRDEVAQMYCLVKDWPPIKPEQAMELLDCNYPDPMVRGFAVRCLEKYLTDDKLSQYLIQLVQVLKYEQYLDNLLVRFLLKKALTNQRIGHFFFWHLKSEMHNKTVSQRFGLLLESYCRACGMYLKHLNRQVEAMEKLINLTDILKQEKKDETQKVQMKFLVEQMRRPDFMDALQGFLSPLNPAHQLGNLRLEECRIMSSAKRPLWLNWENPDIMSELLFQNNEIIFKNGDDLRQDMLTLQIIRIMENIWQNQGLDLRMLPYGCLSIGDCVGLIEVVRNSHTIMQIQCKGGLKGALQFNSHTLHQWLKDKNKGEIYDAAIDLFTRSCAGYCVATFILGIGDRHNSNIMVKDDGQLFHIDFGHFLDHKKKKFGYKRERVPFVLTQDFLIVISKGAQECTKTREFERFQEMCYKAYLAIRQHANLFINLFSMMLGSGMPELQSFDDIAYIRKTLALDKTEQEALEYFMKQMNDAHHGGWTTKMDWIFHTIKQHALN
T1 sequence (P27986 whole entry partner): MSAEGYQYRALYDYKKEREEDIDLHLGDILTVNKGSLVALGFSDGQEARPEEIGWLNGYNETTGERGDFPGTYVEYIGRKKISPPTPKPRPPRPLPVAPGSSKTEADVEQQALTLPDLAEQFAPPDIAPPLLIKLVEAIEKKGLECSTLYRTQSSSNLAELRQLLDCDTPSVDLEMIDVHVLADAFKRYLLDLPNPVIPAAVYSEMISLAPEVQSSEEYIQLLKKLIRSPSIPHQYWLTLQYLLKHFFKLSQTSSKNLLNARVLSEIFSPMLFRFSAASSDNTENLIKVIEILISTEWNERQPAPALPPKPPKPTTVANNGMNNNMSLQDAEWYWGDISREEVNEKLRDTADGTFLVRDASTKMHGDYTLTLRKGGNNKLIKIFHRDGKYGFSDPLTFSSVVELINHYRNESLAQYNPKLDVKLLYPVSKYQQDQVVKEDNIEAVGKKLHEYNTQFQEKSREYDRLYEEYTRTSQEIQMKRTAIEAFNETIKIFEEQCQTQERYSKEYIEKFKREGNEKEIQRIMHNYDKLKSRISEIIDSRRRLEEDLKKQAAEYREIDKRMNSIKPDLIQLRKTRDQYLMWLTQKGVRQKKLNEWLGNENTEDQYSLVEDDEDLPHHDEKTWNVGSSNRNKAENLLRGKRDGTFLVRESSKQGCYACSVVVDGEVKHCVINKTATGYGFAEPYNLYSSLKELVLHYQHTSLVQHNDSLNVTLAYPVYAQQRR

For `CN(C)C(=O)c1ccc(NC(=O)Nc2ccc(-c3nc(N4CCOCC4)c4ncc(-c5ccnnc5)cc4n3)cc2)cc1` [Example 96, N,N-dimethyl-4-(3-(4-(4-morpholino-7-(pyridazin-4-yl)pyrido[3,2-d]pyrimidin-2-yl)phenyl)ureido)-benzamide], the pIC50 is greater than 7.30 in assay [1], greater than 7.30 in assay [2], 5.00 to 6.70 in assay [3] and 5.00 to 6.70 in assay [4].
For `CN(C)C(=O)c1ccc(NC(=O)Nc2ccc(-c3nc(N4CCOCC4)c4ccc(-c5cnn(C)c5)cc4n3)cc2F)cc1` [Example 97, 4-(3-(2-fluoro-4-(7-(1-methyl-1H-pyrazol-4-yl)-4-morpholino-quinazolin-2-yl)phenyl)ureido)-N,N-dimethyl-benzamide], the pIC50 in assay [1] was greater than 7.30; in assay [2], greater than 7.30; in assay [3], 5.00 to 6.70; in assay [4], 5.00 to 6.70.
Regarding `CN(C)C(=O)c1ccc(NC(=O)Nc2ccc(-c3nc(N4CCOCC4)c4ccc(-c5ccnnc5)cc4n3)cc2F)cc1` [Example 98, 4-(3-(2-fluoro-4-(4-morpholino-7-(pyridazin-4-yl)quinazolin-2-yl)phenyl)ureido)-N,N-dimethyl-benzamide], the pIC50 was 6.70 to 7.30 in assay [1], greater than 7.30 in assay [2], 5.00 to 6.70 in assay [3] and 5.00 to 6.70 in assay [4].
Consider `CN(C)C(=O)c1ccc(NC(=O)Nc2ccc(-c3nc(N4CCOCC4)c4cc(F)c(-c5cncnc5)cc4n3)cc2F)cc1` [Example 99, 4-(3-(2-fluoro-4-(6-fluoro-4-morpholino-7-(pyrimidin-5-yl)quinazolin-2-yl)phenyl)ureido)-N,N-dimethyl-benzamide], for which the pIC50 was greater than 7.30 in assay [1], greater than 7.30 in assay [2], 5.00 to 6.70 in assay [3] and 5.00 to 6.70 in assay [4].
Regarding `Cc1ccncc1-c1ccc2c(N3CCOCC3)nc(-c3ccc(NC(=O)Nc4ccc(C(=O)N(C)C)cc4)c(F)c3)nc2c1` [Example 100, 4-(3-(2-fluoro-4-(7-(4-methylpyridin-3-yl)-4-morpholino-quinazolin-2-yl)phenyl)ureido)-N,N-dimethyl-benzamide], the pIC50 in assay [1] was greater than 7.30; in assay [2] it was greater than 7.30; in assay [3], 5.00 to 6.70; in assay [4] it was 5.00 to 6.70.
As for `CN(C)C(=O)c1ccc(NC(=O)Nc2ccc(-c3nc(N4CCOCC4)c4ncc(-c5cncnc5)cc4n3)cc2F)cc1` [Example 101, 4-(3-(2-fluoro-4-(4-morpholino-7-(pyrimidin-5-yl)pyrido[3,2-d]pyrimidin-2-yl)phenyl)ureido)-N,N-dimethyl-benzamide], the pIC50 in assay [1] was greater than 7.30; in assay [2] it was greater than 7.30; in assay [3], 5.00 to 6.70; in assay [4], 5.00 to 6.70.
`CN(C)C(=O)c1ccc(NC(=O)Nc2ccc(-c3nc(N4CCOCC4)c4ncc(-c5cccnc5)cc4n3)cc2F)cc1` [Example 102, 4-(3-(2-fluoro-4-(4-morpholino-7-(pyridin-3-yl)pyrido[3,2-d]pyrimidin-2-yl)phenyl)ureido)-N,N-dimethyl-benzamide]: the pIC50 in assay [1] was greater than 7.30; in assay [2], greater than 7.30; in assay [3], 5.00 to 6.70; in assay [4], 5.00 to 6.70.
For the molecule `CN(C)C(=O)c1ccc(NC(=O)Nc2ccc(-c3nc(N4CCOCC4)c4ccc(-c5cccnc5)cc4n3)cc2F)cc1` [Example 103, 4-(3-(2-fluoro-4-(4-morpholino-7-(pyridin-3-yl)quinazolin-2-yl)phenyl)ureido)-N,N-dimethyl-benzamide], the pIC50 was greater than 7.30 in assay [1], greater than 7.30 in assay [2], 5.00 to 6.70 in assay [3] and 5.00 to 6.70 in assay [4].
`COc1ncc(-c2ccc3c(N4CCOCC4)nc(-c4ccc(NC(=O)Nc5ccc(C(=O)N(C)C)cc5)c(F)c4)nc3c2)cn1` [Example 105, 4-(3-(2-fluoro-4-(7-(2-methoxypyrimidin-5-yl)-4-morpholino-quinazolin-2-yl)phenyl)ureido)-N,N-dimethyl-benzamide]: the pIC50 in assay [1] is 6.70 to 7.30; in assay [2], greater than 7.30; in assay [3], 5.00 to 6.70; in assay [4], 5.00 to 6.70.
In the case of `CN(C)C(=O)c1ccc(NC(=O)Nc2ccc(-c3nc(N4CCOCC4)c4ncc(-c5cccnc5F)cc4n3)cc2F)cc1` [Example 106, 4-(3-(2-fluoro-4-(7-(2-fluoropyridin-3-yl)-4-morpholino-pyrido[3,2-d]pyrimidin-2-yl)phenyl)ureido)-N,N-dimethyl-benzamide], the pIC50 was greater than 7.30 in assay [1], greater than 7.30 in assay [2], 5.00 to 6.70 in assay [3] and 5.00 to 6.70 in assay [4].
As for `CN(C)C(=O)c1ccc(NC(=O)Nc2ccc(-c3nc(N4CCOCC4)c4cc(F)c(-c5cccnc5F)cc4n3)cc2)cc1` [Example 107, 4-(3-(4-(6-fluoro-7-(2-fluoropyridin-3-yl)-4-morpholino-quinazolin-2-yl)phenyl)ureido)-N,N-dimethyl-benzamide], the pIC50 is greater than 7.30 in assay [1], greater than 7.30 in assay [2], 5.00 to 6.70 in assay [3] and 5.00 to 6.70 in assay [4].
In the case of `CN(C)C(=O)c1ccc(NC(=O)Nc2ccc(-c3nc(N4CCOCC4)c4cc(F)c(-c5cccnc5F)cc4n3)cn2)cc1` [Example 112, 4-(3-(5-(6-fluoro-7-(2-fluoropyridin-3-yl)-4-morpholino-quinazolin-2-yl)pyridin-2-yl)ureido)-N,N-dimethyl-benzamide], the pIC50 in assay [1] is greater than 7.30; in assay [2], 5.00 to 6.70; in assay [3], 5.30 to 6.30; in assay [4], greater than 7.00.
In the case of `CN(C)C(=O)c1ccc(NC(=O)Nc2ccc(-c3nc(N4CCOCC4)c4ncc(-c5cccc(S(C)(=O)=O)c5)cc4n3)cn2)cc1` [Example 115, N,N-dimethyl-4-(3-(5-(7-(3-(methylsulfonyl)phenyl)-4-morpholino-pyrido[3,2-d]pyrimidin-2-yl)pyridin-2-yl)ureido)-benzamide], the pIC50 in assay [1] is greater than 7.30; in assay [2] it was 6.70 to 7.30; in assay [3], 5.00 to 6.70; in assay [4], 5.00 to 6.70.
In the case of `COc1ncc(-c2cnc3c(N4CCOCC4)nc(-c4ccc(NC(=O)Nc5ccc(C(=O)N(C)C)cc5)c(F)c4)nc3c2)cn1` [Example 117, 4-(3-(2-fluoro-4-(7-(2-methoxypyrimidin-5-yl)-4-morpholino-pyrido[3,2-d]pyrimidin-2-yl)phenyl)ureido)-N,N-dimethyl-benzamide], the pIC50 was greater than 7.30 in assay [1], greater than 7.30 in assay [2], 5.00 to 6.70 in assay [3] and greater than 7.00 in assay [4].
For `Cc1noc(C)c1-c1cnc2c(N3CCOCC3)nc(-c3ccc(NC(=O)Nc4ccc(C(=O)N(C)C)cc4)cc3)nc2c1` [Example 120, 4-(3-(4-(7-(3,5-dimethylisoxazol-4-yl)-4-morpholino-pyrido[3,2-d]pyrimidin-2-yl)phenyl)ureido)-N,N-dimethyl-benzamide], the pIC50 in assay [1] was greater than 7.30; in assay [2] it was greater than 7.30; in assay [3] it was 5.00 to 6.70; in assay [4], 5.00 to 6.70.
For `Cc1noc(C)c1-c1ccc2c(N3CCOCC3)nc(-c3ccc(NC(=O)Nc4ccc(C(=O)N(C)C)cc4)cc3)nc2c1` [Example 121, 4-(3-(4-(7-(3,5-dimethylisoxazol-4-yl)-4-morpholino-quinazolin-2-yl)phenyl)ureido)-N,N-dimethyl-benzamide], the pIC50 is greater than 7.30 in assay [1], greater than 7.30 in assay [2], 5.00 to 6.70 in assay [3] and 5.00 to 6.70 in assay [4].
For `CN(C)C(=O)c1ccc(NC(=O)Nc2ccc(-c3nc(N4CCOCC4)c4ccc(-c5cncnc5)cc4n3)cc2F)cn1` [Example 123, 5-(3-(2-fluoro-4-(4-morpholino-7-(pyrimidin-5-yl)quinazolin-2-yl)phenyl)ureido)-N,N-dimethylpicolinamide], the pIC50 in assay [1] is 6.70 to 7.30; in assay [2], greater than 7.30; in assay [3], 5.00 to 6.70; in assay [4] it was 5.00 to 6.70.
`CN(C)C(=O)c1ccc(NC(=O)Nc2ccc(-c3nc(N4CCOCC4)c4ncc(-c5cnc(N)nc5)cc4n3)cc2F)cc1` [Example 127, 4-(3-(4-(7-(2-aminopyrimidin-5-yl)-4-morpholinopyrido[3,2-d]pyrimidin-2-yl)-2-fluorophenyl)ureido)-N,N-dimethyl-benzamide]: the pIC50 in assay [1] was greater than 7.30; in assay [2] it was greater than 7.30; in assay [3], 5.00 to 6.70; in assay [4] it was 5.00 to 6.70.
In the case of `CC1CN(c2nc(-c3ccc(NC(=O)Nc4ccc(C(=O)N(C)C)cc4)cc3)nc3cc(-c4cncnc4)ccc23)CC(C)O1` (stereo not shown) [Example 128, 4-(3-(4-(4-(2,6-dimethylmorpholino)-7-(pyrimidin-5-yl)quinazolin-2-yl)phenyl)ureido)-N,N-dimethyl-benzamide], the pIC50 is 5.00 to 6.70 in assay [1], greater than 7.30 in assay [2], 5.00 to 6.70 in assay [3] and greater than 7.00 in assay [4].

The values above are taken from patent US9115092B2, “Substituted quinazoline and pyrido-pyrimidine derivatives” (Asana Biosciences, LLC, priority 2010, dated 2015).
